Experimental data reported in patent US6380209B1 (dated 2002).
Structures can show the parent of a compound that is named as a salt.

Compound: Fc1ccc(-c2cc(NCC3CCNCC3)c3sccc3n2)cc1 (as salt: hydrochloride)
- melting point: > 260 °C (dec.)
